Data as given in US5306713A, “Highly active antioxidant of tocopheryl ascorbyl phosphate” (Shiseido Company Ltd., priority 1991, dated 1994).
Structures can show the parent of a compound that is named as a salt.

Legend:
solubility in water = assay type: physicochemical
[1] = amount of formalin in triethylene glycol stored at 50° C., by colorimetry (Experimental Example 1); conditions: 50% aqueous triethylene glycol; for amount of formalin, After 3 Days / amount of formalin, After 6 Days / amount of formalin, Just After Preparation: 2 mg antioxidant in 10 g
Protocol: As the example of the present invention, 2 mg of the sodium salt of phosphoric acid diester obtained in Preparation Example 2 was dissolved in 10 g of a 50% aqueous solution of triethylene glycol (supplied by Nakarai Chemicals Co., Ltd.), the solution was stored in a thermostat tank maintained at 50° C. for 3 or 6 days, and the amount of formalin was measured by colorimetry.
Triethylene glycol free of any antioxidant as Comparison Example 1, triethylene glycol in which ascorbic acid was added in the same amount as in the Example of the present invention, as Comparison Example 2, and triethylene glycol in which mixed tocopherol was incorporated in the same amount as in the example of the present invention, as Comparison Example 3, were tested in the same manner as described above.

[2] = smell evaluation of stored triethylene glycol samples by three experts (Experimental Example 2); parameters: key: +: no smell of rancidity; -: strong smell of rancidity; conditions: samples of Experimental Example 1 after 6 days storage
Protocol: The sample of the Example of the present invention and Comparison Examples 1, 2, and 3 in Experimental Example 1, obtained after 6 days storage, were evaluated with respect to the smell thereof.
The evaluation was made by three experts.

[3] = anti-oxidizing effect against oxidation of phospholipid/ethanol mixed micell by Fe^2+.ascorbic acid (Experimental Example 3); assay type: biochemical; conditions: 4.0 × 10^-5 M
Protocol: The anti-oxidizing effect of the sodium salt of phosphoric acid diester prepared in Preparation Example 2 against the oxidation of a phospholipid (egg lecitin)/ethanol mixed micell by Fe^2+.ascorbic acid was examined.
About 78 mg of egg lecitin was dissolved in 2 ml of ethanol, and 5 mM HEPES buffer solution (pH 7.2) was gradually added to the solution with ice cooling under the application of an ultrasonic wave (50 W) to form a suspension, until the total amount was 100 ml. Then, 200 μl of a 2.6×10^-4 M aqueous solution of the sodium salt of phosphoric acid diester was added to 1000 μl of the so-formed liquid. Then 50 μl of a 5.0×10^-5 M aqueous solution of sodium ascorbate and 50 μl of a 2.5×10^-6 M aqueous solution of ferrous sulfate were added to the mixture, and oxidation was carried out for 15 minutes in a water bath at 25° C. After the reaction, 50 μl of a 0.1% solution of hydroquinone in ethanol was immediately added to stop the reaction. […] After cooling, the absorbance at 450 to 600 nm was measured by a spectrophotometer. The increase of the absorption in the vicinity of about 530 to about 540 nm in the obtained curve was measured. The inhibition ratio was determined by comparing the obtained result with the result obtained at the blank test not using the test liquid.

[4] = cited from earlier work

Row | Molecule | solubility in water (in words) (solubility in water) | amount of formalin, After 3 Days ([1]; 50° C.) | amount of formalin, After 6 Days ([1]; 50° C.) | amount of formalin, Just After Preparation [1] | Judgement of Smell [2] | other results
1 | Cc1c(C)c2c(c(C)c1OP(=O)(O)OC1=C(O)[C@@H]([C@@H](O)CO)OC1=O)CCC(C)(CCCC(C)CCCC(C)CCCC(C)C)O2 (mixture of isomers) [phosphoric acid diester, L-ascorbic DL-α-tocopherol phosphate] | freely dissolved in water |  |  |  |  | 
2 | Cc1c(C)c2c(c(C)c1OP(=O)(O)OC1=C(O)[C@@H]([C@@H](O)CO)OC1=O)CCC(C)(CCCC(C)CCCC(C)CCCC(C)C)O2 (mixture of isomers) [potassium salt, potassium L-ascorbic DL-α-tocopherol phosphate] | soluble in water |  |  |  |  | 
3 | Cc1c(C)c2c(c(C)c1OP(=O)(O)OC1=C(O)[C@@H]([C@@H](O)CO)OC1=O)CCC(C)(CCCC(C)CCCC(C)CCCC(C)C)O2 (mixture of isomers) [sodium salt of phosphoric acid diester, sodium L-ascorbic DL-α-tocopherol phoschate] | soluble in water | 1.7 | 15.5 | 0.1 | + | anti-oxidizing effect compared with ascorbic acid or tocopherol alone (in words) ([1]; 50° C., 3 or 6 days): much higher anti-oxidizing effect; inhibition of the oxidation (in words) [3]: substantially completely inhibited the oxidation; Inhibition Ratio ([3]; oxidation 15 minutes at 25° C., pH 7.2 HEPES, TBA absorbance about 530 to about 540 nm, 40 µM): 99.1%
4 | O=C1O[C@H]([C@@H](O)CO)C(O)=C1O [ascorbic acid, reference compound] |  | 39.6 | 111.7 | 0.1 | - | 
5 | Cc1c(C)c2c(c(C)c1OP(=O)(O)OC1=C(O)[C@@H]([C@@H](O)CO)OC1=O)CCC(C)(CCCC(C)CCCC(C)CCCC(C)C)O2 (stereo partly shown) [calcium salt] | insoluble in water |  |  |  |  | 
6 | tocopherol |  |  |  |  |  | solubility of tocopherol in water (in words) [4]: not soluble in water
